Laboratory results taken from patent publication US8039481B2, “Tetrahydrofuran derivatives for use as inhibitors of matrix metalloproteinases” (Sanofi-Aventis, priority 2005, dated 2011).

Legend:
[1] = biological target: T1, catalytic domain of human collagenase-1 (MMP-1) (Homo sapiens, UniProt P03956); assay: Enzymatic activity of the catalytic domain of human collagenase-1 (MMP-1), fluorogenic substrate; type: biochemical
T1 construct: Determination of the Enzymatic Activity of the Catalytic Domain of Human Collagenase-1 (MMP-1); purchased Biocol, Potsdam MMP1
T1 sequence (P03956 100-269 limits assumed): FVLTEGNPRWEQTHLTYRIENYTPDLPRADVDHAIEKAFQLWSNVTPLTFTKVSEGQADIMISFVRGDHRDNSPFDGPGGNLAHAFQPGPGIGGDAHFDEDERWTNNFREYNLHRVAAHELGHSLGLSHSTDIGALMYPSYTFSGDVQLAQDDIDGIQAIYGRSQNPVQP
Procedure: Determination of the Enzymatic Activity of the Catalytic Domain of Human Collagenase-1 (MMP-1)
Activation of the proenzyme: 2 parts by volume of proenzyme are incubated with 1 part by volume of APMA solution at 37° C. for 1 hour. The APMA solution is prepared from a 10 mmol/l p-aminophenylmercuric acetate solution in 0.1 mmol/l NaOH by dilution with 3 parts by volume of tris/HCl buffer pH7.5 (see below). The pH is adjusted to between 7.0 and 7.5 by adding 1 mmol/l HCl. After activation of the enzyme, it is diluted with the tris/HCl buffer to a concentration of 2.5 μg/ml.
(§1) The enzymic activity is measured by incubating 10 μl of enzyme solution with 10 μl of a 3% strength (v/v) buffered dimethyl sulfoxide solution (reaction 1) for 15 minutes. The enzyme inhibitor activity is measured by incubating 10 μl of enzyme solution with 10 μl of a 3% strength (v/v) buffered dimethyl sulfoxide solution which contains the enzyme inhibitor (reaction 2).
The enzymic reaction both in the case of reaction 1 and in the case of reaction 2 is followed after addition of 10 μl of a 3% strength (v/v) aqueous dimethyl sulfoxide solution which contains 0.3 mmol/l of the substrate by fluorescence spectroscopy (328 nm (extinction)/393 nm (emission)), and the enzymic activity is presented as increase in extinction per minute.
The effect of the inhibitor is calculated as percentage inhibition by the following formula: % inhibition=100−[(increase in extinction/minute in reaction 2)/(increase in extinction/minute in reaction 1)×100].
The IC50, i.e. the inhibitor concentration necessary for 50% inhibition of the enzymic activity, is determined graphically by plotting the percentage inhibitions at various inhibitor concentrations.
The buffer solution contains 0.05% Brij (Sigma, Deisenhofen, Germany) and 0.1 mol/l tris/HCl, 0.1 mol/l NaCl, 0.01 mol/l CaCl2 (pH=7.5). The enzyme solution contains 2.5 μg/ml of the enzyme domain.
The substrate solution contains 0.3 mmol/l of the fluorogenic substrate (7-methoxycoumarin-4-yl)acetyl-Pro-Leu-Gly-Leu-3-(2′,4′-dinitrophenyl)-L-2,3-diaminopropionyl-Ala-Arg-NH2 (Bachem, Heidelberg, Germany).

[2] = biological target: T2, catalytic domain of human collagenase-3 (MMP-13) (Homo sapiens, UniProt P45452); assay: Enzymatic activity of the catalytic domain of human collagenase-3 (MMP-13), fluorogenic substrate; type: biochemical
T2 construct: Determination of the Enzymatic Activity of the Catalytic Domain of Human Collagenase-3 (MMP-13); purchased INVITEK, Berlin 30 100 803
Procedure: Determination of the Enzymatic Activity of the Catalytic Domain of Human Collagenase-3 (MMP-13)
Activation of the proenzyme: 2 parts by volume of proenzyme were incubated with 1 part by volume of APMA solution at 37° C. for 1.5 hours. The APMA solution was prepared from a 10 mmol/l p-aminophenylmercuric acetate solution in 0.1 mmol/l NaOH by dilution with 3 parts by volume of Tris/HCl buffer pH 7.5 (see below). The pH was adjusted to between 7.0 and 7.5 by adding 1 mmol/l HCl. After activation of the enzyme it was diluted with the Tris/HCl buffer to a concentration of 1.67 μg/ml.
as §1, with “was” for “is”, “contained” for “contains”
The enzymic reaction both in the case of reaction 1 and in the case of reaction 2 was followed after addition of 10 μl of a 3% strength (v/v) aqueous dimethyl sulfoxide solution which contained 0.075 mmol/l of the substrate by fluorescence spectroscopy (328 nm (extinction)/393 nm (emission)).
The enzymic activity has been presented as increase in extinction/minute. The effect of the inhibitor was calculated as percentage inhibition by the following formula: % inhibition=100−[(increase in extinction/minute in reaction 2)/(increase in extinction/minute in reaction 1)×100].
The IC50, which is the concentration of inhibitor which is necessary for 50% inhibition of the enzymic activity, was determined graphically by plotting the percentage inhibitions at various inhibitor concentrations.
The buffer solution contained 0.05% Brij (Sigma, Deisenhofen, Germany) and 0.1 mol/l Tris/HCl, 0.1 mol/l NaCl, 0.01 mol/l CaCl2 (pH=7.5). The enzyme solution contained 1.67 μg/ml of the enzyme domain. The substrate solution contained 0.075 mmol/l of the fluorogenic substrate (7-methoxycoumarin-4-yl)acetyl-Pro-Leu-Gly-Leu-3-(2′,4′-dinitrophenyl)-L-2,3-diaminopropionyl-Ala-Arg-NH2 (Bachem, Heidelberg, Germany).

SMILES	IC50 [1]	IC50 [2]
O=C(NO)[C@H]1[C@H]2CCO[C@H]2CCN1S(=O)(=O)c1ccc(Oc2ccc(F)cc2)cc1 [Example 12]	10 nM	0.7 nM
O=C(NO)C1C2CCOC2CCN1S(=O)(=O)c1ccc(Oc2ccc(F)cc2)cc1 (stereo not shown) [Example 11, 5-[4-(4-fluorophenoxy)benzenesulfonyl]octahydrofuro[3,2-c]pyridine-4-(N-hydroxy)-carboxamide]	39 nM	2 nM
O=C(NO)[C@H]1[C@H]2CCO[C@H]2CCN1S(=O)(=O)c1ccc(-c2ccc(Cl)cc2)cc1 [Example 8]	14 nM	1 nM
O=C(NO)C1C2CCOC2CCN1S(=O)(=O)c1ccc(-c2ccc(Cl)cc2)cc1 (stereo not shown) [Example 7, 5-(4′-chlorobiphenyl-4-sulfonyl)octahydrofuro[3,2-c]pyridine-4-(N-hydroxy)-carboxamide]	29 nM	1.8 nM
O=C(NO)[C@@H]1[C@@H]2CCO[C@@H]2CCN1S(=O)(=O)c1ccc(Oc2ccc(F)cc2)cc1 [Example 13]	1400 nM	63 nM
O=C(O)C1C2CCOC2CCN1S(=O)(=O)c1ccc(-c2ccc(Cl)cc2)cc1 (stereo not shown) [Example 6, 5-(4′-chlorobiphenyl-4-sulfonyl)octahydrofuro[3,2-c]pyridine-4-carboxylic acid]	> 10000 nM	290 nM
CS(=O)(=O)c1ccc(Oc2ccc(S(=O)(=O)N3CC[C@@H]4OCC[C@@H]4[C@@H]3C(=O)NO)cc2)cc1 [Example 23]	640 nM	1 nM
O=C(NO)[C@@H]1[C@@H]2CCO[C@@H]2CCN1S(=O)(=O)c1ccc(-c2ccc(Cl)cc2)cc1 [Example 9]	4100 nM	58 nM
O=C(O)C1C2CCOC2CCN1S(=O)(=O)c1ccc(Oc2ccc(F)cc2)cc1 (stereo not shown) [Example 10, 5-[4-(4-fluorophenoxy)benzenesulfonyl]octahydrofuro[3,2-c]pyridine-4-carboxylic acid]	> 10000 nM	520 nM
N#Cc1ccc(Oc2ccc(S(=O)(=O)N3CC[C@@H]4OCC[C@@H]4[C@@H]3C(=O)NO)cc2)cc1 [Example 21]	59 nM	1 nM
O=C(NO)C1C2CCOC2CCN1S(=O)(=O)c1ccc(Oc2ccc(Cl)cc2)cc1 (stereo not shown) [Example 18, 5-[4-(4-chlorophenoxy)benzenesulfonyl]octahydrofuro[3,2-c]pyridine-4-(N-hydroxy)-carboxamide]	43 nM	1 nM
